Reference: PubChem BioAssay AID248 (DTP/NCI, 2004)
Several values for one entry are separate records, joined by “and”; a condition that tells them apart may be missing. Equal entries are not always repeated. Inconclusive results and toxic doses are left out.

Tested on: L1210 leukemia ip in BDF1 mice, survival T/C
Assay: NCI In Vivo Anticancer Drug Screen. Data for tumor model L1210 Leukemia (intraperitoneal) in B6D2F1 (BDF1) mice
Conditions: endpoint: mean survival time, higher = longer survival
Summary of the method: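 Survival endpoint. Drug-treated group vs vehicle group, expressed as T divided by C. Tumor passaged by transplantation.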

[1] = dose: 12.5 mg/kg/injection, schedule: Q01DX009 (ip), vehicle: saline
[2] = dose: 25.0 mg/kg/injection, schedule: Q01DX009 (ip), vehicle: saline
[3] = dose: 50.0 mg/kg/injection, schedule: Q01DX009 (ip), vehicle: saline
[4] = dose: 100.0 mg/kg/injection, schedule: Q01DX009 (ip), vehicle: Klucel (hydroxypropylcellulose) (HPC)
[5] = dose: 100.0 mg/kg/injection, schedule: Q04DX003 (ip), vehicle: Klucel (hydroxypropylcellulose) (HPC)
[6] = dose: 200.0 mg/kg/injection, schedule: Q01DX009 (ip), vehicle: Klucel (hydroxypropylcellulose) (HPC)
[7] = dose: 200.0 mg/kg/injection, schedule: Q04DX003 (ip), vehicle: Klucel (hydroxypropylcellulose) (HPC)
[8] = dose: 400.0 mg/kg/injection, schedule: Q01DX009 (ip), vehicle: Klucel (hydroxypropylcellulose) (HPC)
[9] = dose: 400.0 mg/kg/injection, schedule: Q04DX003 (ip), vehicle: Klucel (hydroxypropylcellulose) (HPC)
[10] = dose: 100.0 mg/kg/injection, schedule: Q01DX009 (ip), vehicle: saline with Tween-80
[11] = dose: 100.0 mg/kg/injection, schedule: Q04DX003 (ip), vehicle: saline with Tween-80
[12] = dose: 200.0 mg/kg/injection, schedule: Q01DX009 (ip), vehicle: saline with Tween-80
[13] = dose: 200.0 mg/kg/injection, schedule: Q04DX003 (ip), vehicle: saline with Tween-80
[14] = dose: 400.0 mg/kg/injection, schedule: Q01DX009 (ip), vehicle: saline with Tween-80
[15] = dose: 400.0 mg/kg/injection, schedule: Q04DX003 (ip), vehicle: saline with Tween-80
[16] = dose: 100.0 mg/kg/injection, schedule: Q01DX001 (ip), vehicle: Klucel (hydroxypropylcellulose) (HPC)
[17] = dose: 200.0 mg/kg/injection, schedule: Q01DX001 (ip), vehicle: Klucel (hydroxypropylcellulose) (HPC)
[18] = dose: 400.0 mg/kg/injection, schedule: Q01DX001 (ip), vehicle: Klucel (hydroxypropylcellulose) (HPC)
[19] = dose: 400.0 mg/kg/injection, schedule: Q04DX002 (ip), vehicle: saline with Tween-80

Cc1csc2c1c(N)nc(=O)n2C1OC(CO)C(O)C1O (stereo not drawn) was tested, and the T/C (dose: 100.0 mg/kg/injection, schedule: Q01DX005 (ip), vehicle: saline) was 112 % of control and the T/C (dose: 200.0 mg/kg/injection, schedule: Q01DX005 (ip), vehicle: saline) was 102 % of control.
With CCN(CC)CCCC(C)Nc1cc(/C=C/c2ccc(Cl)cc2)nc2ccc(N(C)C)cc12 (stereo not drawn) the T/C (dose: 3.12 mg/kg/injection, schedule: Q01DX009 (ip), vehicle: saline with Tween-80) was 95 % of control, the T/C (dose: 6.25 mg/kg/injection, schedule: Q01DX009 (ip), vehicle: saline with Tween-80) was 97 % of control and the T/C (dose: 12.5 mg/kg/injection, schedule: Q01DX009 (ip), vehicle: saline with Tween-80) was 95 % of control and 98 % of control.
For Cc1cc([N+](=O)[O-])c(NC2CCCCC2)c([N+](=O)[O-])c1, the T/C (dose: 100.0 mg/kg/injection, schedule: Q04DX002 (ip), vehicle: Klucel (hydroxypropylcellulose) (HPC)) was 100 % of control, the T/C (dose: 200.0 mg/kg/injection, schedule: Q04DX002 (ip), vehicle: Klucel (hydroxypropylcellulose) (HPC)) was 93 % of control and the T/C (dose: 400.0 mg/kg/injection, schedule: Q04DX002 (ip), vehicle: Klucel (hydroxypropylcellulose) (HPC)) was 96 % of control.
For CP1(=O)CC2OC23CCCCC31 (stereo not drawn), the T/C [1] was 98 % of control, the T/C [2] was 98 % of control and the T/C [3] was 102 % of control. The T/C (dose: 100.0 mg/kg/injection, schedule: Q01DX009 (ip), vehicle: other) was 109 % of control, the T/C (dose: 100.0 mg/kg/injection, schedule: Q01DX009 (ip), vehicle: saline) was 89 % of control and the T/C (dose: 200.0 mg/kg/injection, schedule: Q01DX009 (ip), vehicle: other) was 114 % of control.
In the case of Brc1c(-c2ccccc2)cc(-c2ccccc2)cc1-c1ccccc1, the T/C [4] is reported as 93 % of control, the T/C [5] is reported as 91 % of control and the T/C [6] is reported as 93 % of control. For the same compound, the T/C [7] was 93 % of control, the T/C [8] was 96 % of control and the T/C [9] was 91 % of control.
In the case of O=c1[nH]c(=O)c2ccccc2c2ccccc12, the T/C [10] is reported as 99 % of control, the T/C [11] is reported as 102 % of control and the T/C [12] is reported as 86 % of control. For the same compound, the T/C [13] was 107 % of control, the T/C [14] was 93 % of control and the T/C [15] was 102 % of control.
For O=P1(c2ccccc2)CCc2[nH]c3ccc(F)cc3c2C1 (stereo not drawn), the T/C [16] was 97 % of control, the T/C [17] was 100 % of control and the T/C [18] was 98 % of control.
In the case of CC(C)C/C=C/C1CCCCC1 (tested in a mixture with another compound), the T/C (dose: 50.0 mg/kg/injection, schedule: Q01DX009 (ip), vehicle: saline with Tween-80) is reported as 101 % of control, the T/C [10] is reported as 93 % of control and the T/C [12] is reported as 97 % of control.
In the case of Br/C=C/C[N+]12CN3CN(CN(C3)C1)C2, the T/C [1] is reported as 95 % of control, the T/C (dose: 12.5 mg/kg/injection, schedule: Q04DX003 (ip), vehicle: saline) is reported as 101 % of control and the T/C [2] is reported as 101 % of control. The T/C (dose: 25.0 mg/kg/injection, schedule: Q04DX003 (ip), vehicle: saline) was 102 % of control, the T/C [3] was 96 % of control and the T/C (dose: 50.0 mg/kg/injection, schedule: Q04DX003 (ip), vehicle: saline) was 98 % of control.
In the case of CCN=C(NCC)c1ccc(NC(=O)c2ccc(C(=O)Nc3ccc(C(=NCC)NCC)cc3)cc2)cc1, the T/C (dose: 7.5 mg/kg/injection, schedule: Q01DX010 (oral), vehicle: saline) is reported as 98 % of control, the T/C (dose: 7.5 mg/kg/injection, schedule: Q01DX Z (ip), vehicle: saline) is reported as 204 % of control and the T/C (dose: 15.0 mg/kg/injection, schedule: Q01DX010 (oral), vehicle: saline) is reported as 95 % of control. For the same compound, the T/C (dose: 15.0 mg/kg/injection, schedule: Q01DX Z (ip), vehicle: saline) was 106 % of control and 109 % of control, the T/C (dose: 30.0 mg/kg/injection, schedule: Q01DX010 (oral), vehicle: saline) was 91 % of control and the T/C (dose: 125.0 mg/kg/injection, schedule: Q01DX Z (oral), vehicle: saline) was 98 % of control. For the same compound, the T/C (dose: 125.0 mg/kg/injection, schedule: Q## X010 (oral), vehicle: saline) was 108 % of control, the T/C (dose: 250.0 mg/kg/injection, schedule: Q01DX Z (oral), vehicle: saline) was 96 % of control and the T/C (dose: 250.0 mg/kg/injection, schedule: Q## X010 (oral), vehicle: saline) was 123 % of control. The T/C (dose: 500.0 mg/kg/injection, schedule: Q01DX Z (oral), vehicle: saline) was 109 % of control.
COC(=O)C1(C)CCCC2(C)C3CCC4(C)CC3(CCC12)OC4C (stereo not drawn) was tested, and the T/C (dose: 100.0 mg/kg/injection, schedule: Q04DX002 (ip), vehicle: saline with Tween-80) was 95 % of control, the T/C (dose: 200.0 mg/kg/injection, schedule: Q04DX002 (ip), vehicle: saline with Tween-80) was 100 % of control and the T/C [19] was 89 % of control.
In the case of CC1CC(C)(C)N=C(c2cccc(Br)c2)O1 (stereo not drawn), the T/C [10] is reported as 103 % of control, the T/C [12] is reported as 103 % of control and the T/C [14] is reported as 92 % of control.
O=C(Nc1ccc(Nc2ccncc2)cc1)c1ccc([N+](=O)[O-])cc1 was tested, and the T/C [4] was 105 % of control, the T/C [5] was 103 % of control and the T/C [6] was 92 % of control. For the same compound, the T/C [7] was 98 % of control, the T/C [8] was 105 % of control and the T/C [9] was 95 % of control.
In the case of Nc1nc2c(c(=O)[nH]1)[N+]1=CN(c3ccc(C(=O)NC(CCC(=O)O)C(=O)O)cc3)CCC1CN2 (stereo not drawn), the T/C (dose: 1.0 mg/kg/injection, schedule: Q01DX009 (ip), vehicle: saline) is reported as 94 % of control, the T/C (dose: 2.0 mg/kg/injection, schedule: Q01DX009 (ip), vehicle: saline) is reported as 100 % of control and the T/C (dose: 4.0 mg/kg/injection, schedule: Q01DX009 (ip), vehicle: saline) is reported as 105 % of control. For the same compound, the T/C (dose: 4.0 mg/kg/injection, schedule: Q04DX003 (ip), vehicle: saline) was 97 % of control, the T/C (dose: 8.0 mg/kg/injection, schedule: Q01DX009 (ip), vehicle: saline) was 94 % of control and the T/C (dose: 8.0 mg/kg/injection, schedule: Q04DX003 (ip), vehicle: saline) was 100 % of control. The T/C (dose: 16.0 mg/kg/injection, schedule: Q01DX009 (ip), vehicle: saline) was 97 % of control, the T/C (dose: 16.0 mg/kg/injection, schedule: Q04DX003 (ip), vehicle: saline) was 99 % of control and the T/C (dose: 32.0 mg/kg/injection, schedule: Q04DX003 (ip), vehicle: saline) was 90 % of control. For the same compound, the T/C (dose: 64.0 mg/kg/injection, schedule: Q04DX003 (ip), vehicle: saline) was 97 % of control.
CC(O)(CC(=O)O)c1ccc([N+](=O)[O-])cc1 (stereo not drawn) was tested, and the T/C (dose: 50.0 mg/kg/injection, schedule: Q01DX001 (ip), vehicle: saline) was 96 % of control, the T/C (dose: 100.0 mg/kg/injection, schedule: Q01DX001 (ip), vehicle: saline) was 102 % of control and the T/C (dose: 200.0 mg/kg/injection, schedule: Q01DX001 (ip), vehicle: saline) was 108 % of control. The T/C (dose: 400.0 mg/kg/injection, schedule: Q01DX001 (ip), vehicle: saline) was 102 % of control.
For Cc1cccc(N=Cc2cccc([N+](=O)[O-])c2)c1, the T/C (dose: 50.0 mg/kg/injection, schedule: Q04DX003 (ip), vehicle: Klucel (hydroxypropylcellulose) (HPC)) was 98 % of control, the T/C [16] was 100 % of control and the T/C [5] was 98 % of control. For the same compound, the T/C [17] was 94 % of control, the T/C [7] was 98 % of control and the T/C [18] was 92 % of control.
In the case of COc1ccc(C(=O)c2ccc([N+](=O)[O-])cc2)c(OC)c1, the T/C [16] is reported as 101 % of control and the T/C [17] is reported as 111 % of control.
In the case of Br[SiH](Br)Br, the T/C (dose: 25.6 mg/kg/injection, schedule: Q04DX002 (ip), vehicle: saline with Tween-80) is reported as 93 % of control, the T/C (dose: 64.0 mg/kg/injection, schedule: Q04DX002 (ip), vehicle: saline with Tween-80) is reported as 93 % of control and the T/C [11] is reported as 101 % of control. The T/C (dose: 160.0 mg/kg/injection, schedule: Q04DX002 (ip), vehicle: saline with Tween-80) was 90 % of control, the T/C [13] was 92 % of control and the T/C [19] was 97 % of control. The T/C [15] was 92 % of control.
For CSCCC1NC(=O)C(/C(C)=N\NC(N)=O)=C1O (stereo not drawn), the T/C (dose: 50.0 mg/kg/injection, schedule: Q01DX001 (ip), vehicle: carboxymethylcellulose (CMC)) was 101 % of control, the T/C (dose: 100.0 mg/kg/injection, schedule: Q01DX001 (ip), vehicle: carboxymethylcellulose (CMC)) was 103 % of control and the T/C (dose: 200.0 mg/kg/injection, schedule: Q01DX001 (ip), vehicle: carboxymethylcellulose (CMC)) was 103 % of control. For the same compound, the T/C (dose: 400.0 mg/kg/injection, schedule: Q01DX001 (ip), vehicle: carboxymethylcellulose (CMC)) was 101 % of control.
